Measurements published in the supplement of paper PMC10307832.

Columns and labels:
Assay in all cases: relative viability (nuclei count vs DMSO), 5 days (fraction); higher = more cells survive
[1] = compound: CCn1c(-c2nonc2N)nc2cnc(Oc3cccc(NC(=O)c4ccc(OCCN5CCOCC5)cc4)c3)cc21 + CS(=O)(=O)CCNCc1ccc(-c2ccc3ncnc(Nc4ccc(OCc5cccc(F)c5)c(Cl)c4)c3c2)o1 [Lapatinib] (partner 2 µM)
Method in brief: (§1)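 Values are medians from duplicate plates. Each reflects relative viability, defined as the nuclei count of treated wells over that of vehicle wells. Lung cancer cell lines in 1536-well plates were pin-tool dosed one day after seeding with one drug alone or with a fixed anchor-drug dose plus five library-drug doses (not always all listed) in √10 steps, then fixed, stained and imaged at 4× after 5 days.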

Mirin + Phenformin = compound: N=C1NC(=O)/C(=C/c2ccc(O)cc2)S1 [Mirin] + N=C(N)NC(=N)NCCc1ccccc1 [Phenformin] (partner 250 µM)
Method in brief: as §1

Mirin + Olaparib = compound: N=C1NC(=O)/C(=C/c2ccc(O)cc2)S1 [Mirin] + O=C(c1cc(Cc2n[nH]c(=O)c3ccccc23)ccc1F)N1CCN(C(=O)C2CC2)CC1 [Olaparib] (partner 8 µM)
Method in brief: as §1

[2] = compound: CCC1=CN=CN=C1N2CCN(CC2)CC3=NC4=C(N3)C=C(C=C4)C(F)(F)F + N=C(N)NC(=N)NCCc1ccccc1 [Phenformin] (partner 250 µM)
Method in brief: as §1

Cell Line	relative viability ([1]; first compound 0.04 µM)	relative viability ([1]; first compound 0.1265 µM)	relative viability ([1]; first compound 0.4 µM)	relative viability ([1]; first compound 1.265 µM)	relative viability ([1]; first compound 4 µM)	relative viability (Mirin + Phenformin; first compound 0.25 µM)	relative viability (Mirin + Phenformin; first compound 2.5 µM)	relative viability (Mirin + Phenformin; first compound 7.906 µM)	relative viability (Mirin + Phenformin; first compound 25 µM)	relative viability (Mirin + Olaparib; first compound 0.25 µM)	relative viability (Mirin + Olaparib; first compound 0.7906 µM)	relative viability (Mirin + Olaparib; first compound 2.5 µM)	relative viability (Mirin + Olaparib; first compound 7.906 µM)	relative viability (Mirin + Olaparib; first compound 25 µM)	relative viability ([2]; first compound 0.04 µM)	relative viability ([2]; first compound 0.1265 µM)	relative viability ([2]; first compound 0.4 µM)	relative viability ([2]; first compound 1.265 µM)	relative viability ([2]; first compound 4 µM)	relative viability (Mirin + Phenformin; first compound 0.7906 µM)
LK-2	1.2	0.95	0.605	0.706	0.949	0.408	0.363	0.203	0.167	0.629	0.454	0.695	0.489	0.546	0.416	0.565	0.407	0.23	0.523	–
LOU-NH91	0.817	0.77	0.537	0.518	0.517	0.718	0.703	0.668	0.856	0.927	0.976	0.946	0.943	1.09	0.605	0.692	0.685	0.669	0.714	0.671
LU99A	1.15	0.845	0.641	0.862	0.694	0.839	0.882	0.762	0.766	0.297	0.206	0.288	0.228	0.165	0.858	0.795	0.808	0.634	0.942	0.687
LXF-289	1.04	1.02	0.856	0.737	0.645	0.543	0.546	0.511	0.548	1.04	1.04	1	1.04	0.975	0.54	0.461	0.547	0.483	0.529	0.589
NCI-H23	1.34	1.17	–	0.688	0.698	0.817	0.747	0.753	0.862	0.317	–	0.342	0.248	0.377	0.703	0.742	0.768	0.73	0.792	–
NCI-H322M	0.572	0.659	0.437	0.876	0.783	0.792	0.777	0.963	0.628	0.81	0.816	0.726	0.712	0.583	0.874	0.761	0.772	0.632	0.799	0.623
NCI-H358	0.474	0.479	0.29	0.525	0.316	0.344	0.318	0.313	0.213	0.6	0.86	0.584	0.487	0.601	0.345	0.289	0.372	0.317	0.349	0.347
NCI-H460	1.93	0.994	0.656	0.202	0.299	0.551	0.5	0.522	0.623	0.505	0.447	0.438	0.413	0.557	0.465	0.525	0.484	0.439	0.499	0.485
NCI-H520	1	0.897	0.632	0.385	0.312	0.751	0.701	0.338	0.356	0.311	0.336	0.307	0.349	0.187	0.553	0.648	0.38	–	0.46	0.459
NCI-H596	1.04	0.942	0.978	0.87	0.97	0.709	0.704	0.787	0.736	0.661	0.775	0.67	0.745	0.881	0.729	0.66	0.67	–	0.79	0.713
NCI-H647	1.26	0.774	0.634	0.526	0.548	0.613	0.521	0.542	0.36	0.567	0.617	0.617	0.479	0.164	0.555	0.589	0.518	0.461	0.626	0.455
NCI-H650	1.29	0.686	0.5	0.269	0.472	0.436	0.453	–	0.546	0.365	0.433	0.352	0.307	0.366	0.442	0.418	0.466	0.454	0.464	0.384
NCI-H661	0.47	0.457	0.457	0.39	0.385	0.292	0.287	0.272	0.247	0.713	0.759	0.712	0.707	0.655	0.28	0.259	0.301	0.263	0.313	0.278
NCI-H727	1.12	0.894	0.339	0.868	0.569	0.828	0.444	0.657	0.577	0.728	0.6	0.768	0.602	0.561	0.505	0.541	0.439	–	0.671	0.922
NCI-H838	0.804	0.485	0.323	0.281	0.261	0.654	0.634	0.626	0.468	0.788	0.811	0.829	0.749	0.529	0.575	0.507	0.536	0.434	0.596	0.292
